{
  "source": "patent US5482954A",
  "about": "“Signal transduction inhibitor triazole and diazole compounds” (priority 1994, dated 1996)",
  "key": {"A2058 cells": {"system": "A2058 cells", "experiment": "Cell adhesion to tissue culture plastic", "assay_type": "cell-based, human", "settings": "0.03-10 μg/mL, 2 to 48 hr preincubation", "description": "An adhesion assay was developed using tissue culture plastic petri dishes as the substrate. Aliquots of cells treated similarly to those in the cell motility assay were plated in triplicate onto the dishes and incubated for 90 rain at 37° C. Cells which were either poorly adherent or nonadherent were gently washed off with PBS. The remaining cells were stained with Diff Quik™ (from Baxter Scientific Products, McGaw Park. Ill., USA). Adherence was quantitated using laser densitometry and values were calculated as a percentage of the control adherence.\n(§1) Cells were preincubated with compound 1 (0.03-10 μg/mL) for periods of 2 to 48 hr prior to the adhesion assay. In addition, compound 1 remained present during the assay. […] Maximal inhibition of adhesion was observed following overnight exposure of the cells to compound 1."}, "[1]": {"system": "5R ras-transfected rat embryo fibroblast cell line", "experiment": "Experimental pulmonary metastasis, tumor cells pretreated in vitro", "assay_type": "in vivo, nude mice", "settings": "cells treated overnight, 1-10 μM; 10 d", "description": "This example illustrates the effect of selected compounds on the development of experimental pulmonary metastases, when the tumor cells are first incubated with the compound in vitro and subsequently injected into the tail vein of nude mice. In this example, both the 5R ras-transfected rat embryo fibroblast cell line and the HT-29 human colon cancer cell line were evaluated.\nThe 5R ras-transfected rat embryo fibroblast cell line forms confluent pulmonary metastases within 2-3 weeks after inoculation. For the experimental metastasis assay, 5R cells were treated in culture overnight with the test compounds (1-10 μM). After culture, the cells were harvested, washed and injected into the tail vein of six-week old nude mice. After 10 d, the mice were humanely sacrificed and the lungs were removed and fixed in Bouin's solution. The visible pulmonary metastases were counted."}, "[2]": {"experiment": "Plasma levels in mice (HPLC)", "assay_type": "in vivo, nude mice", "settings": "oral", "description": "Murine data: A cohort of nude mice were inoculated with A2058 cells and treated with compound 1 at rates of 100 mg/kg/d and 250 mg/kg/qod. These animals were sacrificed humanely at 4 day intervals beginning 18 hr after oral administration of 1. Plasma was collected and frozen until evaluation by HPLC. Plasma samples were precipitated with 10% trichloroacetic acid and extracted with methylene chloride. The organic extract was evaporated to dryness under a stream of nitrogen, reconstituted and chromatographed by HPLC using an isocratic elution of 70% methanol in 0.1 M ammonium acetate (pH 6.5) on a C-18 analytical column. The lower level of sensitivity of this method is 20 ng/mL. The levels of compound 1 in plasma ranged from 1-5 μg/mL in the 100 mg/kg/d cohort and from 5-10 μg/mL in the 250 mg/kg/qod group. These plasma levels are in the range determined to be biologically significant in the inhibition of signal transduction."}, "A2058 or 5R cells": {"system": "A2058 or 5R cells", "experiment": "Cell spreading", "assay_type": "cell-based", "description": "as §1"}},
  "data": [
    {"molecule": "NC(=O)c1nnn(Cc2cc(Cl)c(C(=O)c3ccc(Cl)cc3)c(Cl)c2)c1N", "note": "[Compound 1]", "values": [
      {"measurement": "inhibition of cell adhesion", "setting": "A2058 cells", "value": "dose-dependent inhibition of cell adhesion"},
      {"measurement": "inhibition of pulmonary colonization", "setting": "[1]", "value": 95, "unit": "%"},
      {"measurement": "level in plasma", "setting": "[2]; 100 mg/kg/d", "value": "1000 to 5000", "unit": "ng/mL"},
      {"measurement": "level in plasma", "setting": "[2]; 250 mg/kg/qod", "value": "5000 to 10000", "unit": "ng/mL"},
      {"measurement": "cell spreading", "setting": "A2058 or 5R cells", "value": "not markedly decreased"}
    ]}
  ]
}
